Laboratory results: US12336991B2, “Factor XIIA inhibitors” (UNIVERSITY OF LEEDS, priority 2018, dated 2025)
pKi: −log10 of the molar value.

Experiments:
Format in all cases: biochemical
FXIIa = molecular target: T1, FXIIa (Homo sapiens, UniProt P00748); assay: Determination of Factor XIIa inhibition, chromogenic substrate S-2302 assay; details: human FXIIa alpha
T1 sequence (P00748 373-615 limits assumed): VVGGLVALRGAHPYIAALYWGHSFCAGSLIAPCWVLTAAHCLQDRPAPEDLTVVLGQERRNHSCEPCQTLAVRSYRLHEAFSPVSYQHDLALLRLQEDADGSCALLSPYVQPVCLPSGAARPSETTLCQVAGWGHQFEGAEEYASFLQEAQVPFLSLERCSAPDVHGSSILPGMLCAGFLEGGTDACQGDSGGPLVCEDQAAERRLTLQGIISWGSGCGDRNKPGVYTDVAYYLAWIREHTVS
T1 sequence (P00748 20-372 partner limits assumed): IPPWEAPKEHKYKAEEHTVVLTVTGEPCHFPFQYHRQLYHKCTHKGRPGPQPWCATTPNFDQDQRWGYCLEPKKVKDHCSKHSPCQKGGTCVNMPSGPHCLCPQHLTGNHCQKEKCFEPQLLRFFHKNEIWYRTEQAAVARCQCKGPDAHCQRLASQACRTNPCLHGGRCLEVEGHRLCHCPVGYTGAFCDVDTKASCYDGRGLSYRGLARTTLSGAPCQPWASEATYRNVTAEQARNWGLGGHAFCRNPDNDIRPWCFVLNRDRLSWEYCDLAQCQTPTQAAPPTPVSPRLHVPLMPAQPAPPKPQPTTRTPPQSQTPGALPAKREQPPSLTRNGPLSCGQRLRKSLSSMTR
Outline: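 FXIIa (10 nM) preincubated with compound 10 min at 37° C. in 50 mM Tris, 137 mM NaCl pH 7.4, 5% DMSO, top concentration 500 μM, then S-2302 added ([…]). Absorbance at 405 nm read kinetically for 3 h; IC50 from initial rates, converted to Ki by Cheng-Prusoff.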

thrombin = molecular target: T2, thrombin (Homo sapiens, UniProt P00734); assay: Determination of selectivity: thrombin inhibition, chromogenic substrate GPR assay; details: fold selectivity for FXIIa over thrombin
T2 construct: FXa (5 nM) and thrombin (5 nM)
Outline: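 Thrombin (5 nM) preincubated with compound 10 min at 37 °C in 50 mM Tris, 137 mM NaCl, pH 7.4, 5% DMSO, then GPR substrate ([…]) added. Absorbance at 405 nm read kinetically for 3 h; IC50 from initial rates, converted to Ki via Ki=IC50/(1+[S]/Km).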

FXa = FXa (Homo sapiens, UniProt P00742); assay: Determination of selectivity: FXa inhibition, chromogenic substrate S2765 assay; details: fold selectivity for FXIIa over FXa
Outline: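 Human FXa (5 nM) preincubated with compound (top 500 μM, 5% DMSO) 10 min at 37 °C in 50 mM Tris, 137 mM NaCl pH 7.4, then S2765 ([…]) added; A405 kinetics over 3 h at 37 °C. IC50 from initial rates, converted to Ki via Cheng-Prusoff.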

FXa, sequence (P00742 235-488 limits assumed): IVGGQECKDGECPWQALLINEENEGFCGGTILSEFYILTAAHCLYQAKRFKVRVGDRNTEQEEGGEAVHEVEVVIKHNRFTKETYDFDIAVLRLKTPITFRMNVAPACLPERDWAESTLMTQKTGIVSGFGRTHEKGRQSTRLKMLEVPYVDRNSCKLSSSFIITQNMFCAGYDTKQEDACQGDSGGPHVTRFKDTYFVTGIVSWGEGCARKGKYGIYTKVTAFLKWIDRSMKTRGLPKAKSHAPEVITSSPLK
FXa, sequence (P00742 41-179 partner limits assumed): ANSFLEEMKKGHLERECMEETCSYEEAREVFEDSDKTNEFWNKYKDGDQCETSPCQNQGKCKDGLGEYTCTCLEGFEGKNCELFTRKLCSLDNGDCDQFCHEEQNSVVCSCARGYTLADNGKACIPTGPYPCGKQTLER

Compound	pKi (FXIIa)	Thrombin (human)/FXIIa alpha (human) (thrombin)	FXa (human)/FXIIa alpha (human) (FXa)
Cn1nnc2cc(CNC(=O)[C@@H]3C[C@@H](CC4CCCC4)CN3C(=O)[C@H](N)CCC(=O)N3CCCC3)ccc21 [Example M05291]	5.70 to 6.70	+++ (fold selectivity values greater than 100)	∘∘∘
NCc1ccc(CNC(=O)[C@@H]2CCCN2C(=O)[C@H](N)CCC(=O)N2CC=CC2)cc1 [Example M00922]	< 5.70	+ (fold selectivity values less than 10)	∘∘
N[C@H](CCc1ccccc1)C(=O)N1CCC[C@H]1C(=O)NCc1ccc2nccn2c1 [Example M05021]	< 5.70	+ (fold selectivity values less than 10)	∘∘
Cn1nnc2cc(CNC(=O)[C@@H]3C[C@@H](c4ccccc4)CN3C(=O)[C@H](N)CCC(=O)N3CCCC3)ccc21 [Example M05155]	5.70 to 6.70	+++ (fold selectivity values greater than 100)	∘∘∘
COc1ccc(C[C@@H]2C[C@@H](C(=O)NCc3ccc4c(c3)nnn4C)N(C(=O)[C@H](N)CCC(=O)N3CCNC[C@@H]3C)C2)cc1 [Example M05417, (2S,4R)-1-[(R)-2-amino-5-((S)-2-methyl-piperazin-1-yl)-5-oxo-pentanoyl]-4-(4-methoxy-benzyl)-pyrrolidine-2-carboxylic acid (1-methyl-1H-benzotriazol-5-ylmethyl)-amide]	5.70 to 6.70	+++ (fold selectivity values greater than 100)	∘∘∘
COc1ccc(C[C@@H]2C[C@@H](C(=O)NCc3ccc4c(c3)nnn4C)N(C(=O)[C@H]3C[C@@H](c4ccccc4)CN3)C2)cc1 [Example M05289]	5.70 to 6.70	+++ (fold selectivity values greater than 100)	∘∘∘
COc1ccc(C[C@@H]2C[C@@H](C(=O)NCc3ccc4c(c3)nnn4C)N(C(=O)[C@H]3C[C@@H](c4ccccc4)CN3)C2)cc1Cl [Example M05339]	5.70 to 6.70	+++ (fold selectivity values greater than 100)	∘∘∘
Cn1nnc2cc(CNC(=O)[C@@H]3C[C@@H](Cc4cc(F)cc(F)c4)CN3C(=O)[C@H](N)CCC(=O)N3CCCC3)ccc21 [Example M05274]	5.70 to 6.70	+++ (fold selectivity values greater than 100)	∘∘∘
Cn1nnc2cc(CNC(=O)[C@@H]3CC(NCC4CCCCC4)CN3C(=O)[C@H](N)CCc3ccccc3)ccc21 (stereo partly drawn) [Example M05204]	< 5.70	++ (fold selectivity value of 10 to 100)	∘∘
Cn1nnc2cc(CNC(=O)[C@@H]3CC(Cc4ccc(C#N)cc4)CN3C(=O)[C@H](N)CCC(=O)N3CCCC3)ccc21 (stereo partly drawn) [Example M05312]	5.70 to 6.70	+++ (fold selectivity values greater than 100)	∘∘∘
CN(C)[C@H](CCC(=O)N1CCCC1)C(=O)N1C[C@H](Cc2cccnc2)C[C@H]1C(=O)NCc1ccc2c(cnn2C)c1 [Example M05223]	5.70 to 6.70	+++ (fold selectivity values greater than 100)	∘∘∘
COc1cc(CNC(=O)[C@@H]2C[C@H](O)CN2C(=O)[C@H](N)CCc2ccccc2)ccc1CN [Example M05056]	5.70 to 6.70	+++ (fold selectivity values greater than 100)	∘∘∘
Cc1cccc(CC[C@@H](N)C(=O)N2CCC[C@H]2C(=O)NCc2ccc(CN)cc2)c1 [Example M00762]	< 5.70	+ (fold selectivity values less than 10)	∘∘
Cn1nnc2cc(CNC(=O)[C@@H]3C[C@H](Cc4cccc(F)c4)CN3C(=O)[C@H](N)CCC(=O)N3CCCC3)ccc21 [Example M05232]	5.70 to 6.70	+++ (fold selectivity values greater than 100)	∘∘∘
Cn1nnc2cc(CNC(=O)[C@@H]3C[C@@H](c4ccccc4)CN3C(=O)[C@H](N)CCc3ccccc3)ccc21 [Example M05119, (2S,4S)-1-((R)-2-Amino-4-phenyl-butyryl)-4-phenyl-pyrrolidine-2-carboxylic acid (1-methyl-1H-benzotriazol-5-ylmethyl)-amide]	< 5.70	++ (fold selectivity value of 10 to 100)	∘∘
CC(=O)N[C@H]1C[C@@H](C(=O)NCc2ccnc(N)c2)N(C(=O)[C@H](N)CCc2ccccc2)C1 [Example M05141]	< 5.70	+ (fold selectivity values less than 10)	∘
COc1ccc(C[C@@H]2C[C@@H](C(=O)NCc3ccc4c(c3)nnn4C)N(C(=O)[C@H](N)CC(O)c3ccccc3)C2)cc1 (stereo partly drawn) [Example M05379]	5.70 to 6.70	+++ (fold selectivity values greater than 100)	∘∘∘
NCc1ccc(CNC(=O)[C@@H]2C[C@@H](Cc3cccc(Cl)c3)CN2C(=O)[C@H](N)CCc2ccccc2)cc1 [Example M05130]	5.70 to 6.70	++ (fold selectivity value of 10 to 100)	∘∘∘
COc1ccc(C[C@@H]2C[C@@H](C(=O)NCc3ccc4c(c3)nnn4C)N(C(=O)[C@H]3C[C@@H](c4cnn(C)c4)CN3C)C2)cc1 [Example M05474, (2S,4R)-4-(4-Methoxy-benzyl)-1-[(2R,4S)-1-methyl-4-(1-methyl-1H-pyrazol-4-yl)-pyrrolidine-2-carbonyl]-pyrrolidine-2-carboxylic acid (1-methyl-1H-benzotriazol-5-ylmethyl)-amide]	5.70 to 6.70	+++ (fold selectivity values greater than 100)	∘∘∘

Further lines, results first:

pKi (FXIIa)	Thrombin (human)/FXIIa alpha (human) (thrombin)	FXa (human)/FXIIa alpha (human) (FXa)	Compound
5.70 to 6.70	++ (fold selectivity value of 10 to 100)	∘∘	Cn1nnc2cc(CNC(=O)[C@@H]3C[C@@H](Cc4ccc(OC(F)(F)F)cc4)CN3C(=O)[C@H]3C[C@@H](c4ccccc4)CN3)ccc21 [Example M05362]
< 5.70	++ (fold selectivity value of 10 to 100)	∘∘	COc1ccc(C[C@@H]2C[C@@H](C(=O)NCc3ccc4c(c3)nnn4C)N(C(=O)[C@H]3CC(c4c[nH]cn4)CN3)C2)cc1 (stereo partly drawn) [Example M05464]
< 5.70	++ (fold selectivity value of 10 to 100)	∘∘	COc1ccc(C[C@@H]2C[C@@H](C(=O)NCc3ccc4c(c3)nnn4C)N(C(=O)[C@H]3CC(c4cn[nH]c4)CN3)C2)cc1 (stereo partly drawn) [Example M05454]
< 5.70	++ (fold selectivity value of 10 to 100)	∘∘	Cn1nnc2cc(CNC(=O)[C@@H]3C[C@@H](Cc4cccc(Cl)c4)CN3C(=O)[C@H]3C[C@@H](c4ccccc4)CN3)ccc21 [Example M05335]
< 5.70	++ (fold selectivity value of 10 to 100)	∘∘	COc1ccc(C[C@@H]2C[C@@H](C(=O)NCc3ccc4c(c3)nnn4C)N(C(=O)C3NCCc4cc(O)ccc43)C2)cc1 (stereo partly drawn) [Example M05429]
< 5.70	++ (fold selectivity value of 10 to 100)	∘∘	COc1ccc(C[C@@H]2C[C@@H](C(=O)NCc3ccc4c(c3)nnn4C)N(C(=O)C3NCCc4cc(Br)ccc43)C2)cc1 (stereo partly drawn) [Example M05471]
< 5.70	++ (fold selectivity value of 10 to 100)	∘∘	Cn1nnc2cc(CNC(=O)[C@@H]3C[C@@H](Cc4ccccc4C#N)CN3C(=O)[C@H]3C[C@@H](c4ccccc4)CN3)ccc21 [Example M05337]
5.70 to 6.70	++ (fold selectivity value of 10 to 100)	∘∘	Cc1ccccc1C[C@@H]1C[C@@H](C(=O)NCc2ccc3c(c2)nnn3C)N(C(=O)[C@H]2C[C@@H](c3ccccc3)CN2)C1 [Example M05360]
